# Measurements from ChEMBL document CHEMBL1144193, “Design, synthesis, and evaluation of novel aryl-tetrahydropyridine PPARalpha/gamma dual agonists” (Bioorg Med Chem Lett, 2008).
# Assays:
# [1] = biological target: T1, Peroxisome proliferator-activated receptor gamma (Homo sapiens, UniProt P37231)
# T1 sequence (P37231 whole entry): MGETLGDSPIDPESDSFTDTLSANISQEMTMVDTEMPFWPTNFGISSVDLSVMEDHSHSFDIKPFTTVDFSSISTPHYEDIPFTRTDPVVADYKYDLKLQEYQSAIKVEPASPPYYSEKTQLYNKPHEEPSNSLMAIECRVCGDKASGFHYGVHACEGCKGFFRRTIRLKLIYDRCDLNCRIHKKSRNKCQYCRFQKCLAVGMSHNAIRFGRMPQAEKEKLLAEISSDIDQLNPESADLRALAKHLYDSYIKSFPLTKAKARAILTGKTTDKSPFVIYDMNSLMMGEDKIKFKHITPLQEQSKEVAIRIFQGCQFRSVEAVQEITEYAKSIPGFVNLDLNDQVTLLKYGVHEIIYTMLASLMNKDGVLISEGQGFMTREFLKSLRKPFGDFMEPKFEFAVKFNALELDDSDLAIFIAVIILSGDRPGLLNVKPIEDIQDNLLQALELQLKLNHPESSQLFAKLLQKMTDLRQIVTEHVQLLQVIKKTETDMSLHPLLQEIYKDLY
# Description: Agonist activity at human PPARgamma expressed in african green monkey CV-1 co-transfected with GAL4 by dual-glo luciferase reporter gene assay
# [2] = biological target: T2, Peroxisome proliferator-activated receptor alpha (Homo sapiens, UniProt Q07869); assay: Agonist activity at human PPARalpha expressed in african green monkey CV-1 by co-transfected with GAL4 by dual-glo luciferase reporter gene assay; type: functional
# T2 sequence (Q07869 whole entry): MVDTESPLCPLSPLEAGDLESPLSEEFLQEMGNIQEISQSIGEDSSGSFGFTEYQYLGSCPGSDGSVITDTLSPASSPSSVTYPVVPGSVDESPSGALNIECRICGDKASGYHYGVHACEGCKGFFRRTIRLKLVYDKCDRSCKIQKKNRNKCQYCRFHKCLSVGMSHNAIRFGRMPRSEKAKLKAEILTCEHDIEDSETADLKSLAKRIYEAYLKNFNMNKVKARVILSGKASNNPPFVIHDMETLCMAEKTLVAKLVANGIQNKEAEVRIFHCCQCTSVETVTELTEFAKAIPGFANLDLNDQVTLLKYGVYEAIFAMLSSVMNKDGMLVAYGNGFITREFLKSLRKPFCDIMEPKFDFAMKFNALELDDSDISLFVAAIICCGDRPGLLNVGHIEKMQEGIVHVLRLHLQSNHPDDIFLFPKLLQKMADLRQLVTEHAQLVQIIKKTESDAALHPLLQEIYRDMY
# [3] = system: Mus musculus; assay: Antihyperglycemic activity in db/db mouse assessed as reduction in plasma glucose level at 0.1 mg/kg, po once daily after 28 days relative to non-fasting control; type: functional; set-up: scale not given: the % may be the effect or the level left
# [4] = Tmax in Sprague-Dawley rat at 3 mg/kg, po; type: ADME, organism-based; set-up: dose 3 mg/kg, route oral; details: in vivo
# [5] = system: Mus musculus; assay: Antihyperglycemic activity in db/db mouse assessed as reduction in plasma glucose level at 0.3 mg/kg, po once daily after 28 days relative to non-fasting control; type: functional; set-up: scale not given: the % may be the effect or the level left
# [6] = system: Mus musculus; assay: Antihyperglycemic activity in po dosed db/db mouse assessed as reduction in glucose level after 28 days; type: functional; details: 672 h
# [7] = AUC (0 to 24 hrs) in Sprague-Dawley rat at 3 mg/kg, iv; type: ADME, organism-based; set-up: time < 24 hr, dose 3 mg/kg, route intravenous; details: plasma
# [8] = system: Mus musculus; assay: Antihyperglycemic activity in db/db mouse assessed as reduction in plasma glucose level at 0.03 mg/kg, po once daily after 28 days relative to non-fasting control; type: functional; set-up: scale not given: the % may be the effect or the level left
# [9] = system: Mus musculus; assay: Antihyperglycemic activity in db/db mouse assessed as increase in body weight at 0.1 mg/kg, po once daily after 28 days; type: functional
# [10] = Volume of distribution at steady state in Sprague-Dawley rat at 3 mg/kg, iv; details: in vivo
# [11] = Oral bioavailability in Sprague-Dawley rat at 3 mg/kg; type: ADME, organism-based; details: in vivo
# [12] = AUC (0 to 24 hrs) in Sprague-Dawley rat at 3 mg/kg, po; type: ADME, organism-based; set-up: time < 24 hr, dose 3 mg/kg, route oral; details: plasma
# [13] = Half life in Sprague-Dawley rat at 3 mg/kg, iv; type: ADME, organism-based; set-up: dose 3 mg/kg, route intravenous; details: in vivo
# [14] = system: Mus musculus; assay: Antihyperglycemic activity in db/db mouse assessed as increase in body weight at 0.03 mg/kg, po once daily after 28 days; type: functional
# [15] = Clearance in Sprague-Dawley rat at 3 mg/kg, iv; type: ADME, organism-based; set-up: dose 3 mg/kg, route intravenous; details: in vivo
# [16] = system: Mus musculus; assay: Antihyperglycemic activity in db/db mouse assessed as increase in body weight at 0.3 mg/kg, po once daily after 28 days; type: functional
# [17] = system: Mus musculus; assay: Antihyperglycemic activity in db/db mouse assessed as reduction in plasma glucose level at 1 mg/kg, po once daily after 28 days relative to non-fasting control; type: functional; set-up: scale not given: the % may be the effect or the level left
# [18] = Solubility at pH 6.8; type: physicochemical; details: buffer
# [19] = system: Mus musculus; assay: Antihyperglycemic activity in db/db mouse assessed as increase in body weight at 1 mg/kg, po once daily after 28 days; type: functional
# [20] = Cmax in Sprague-Dawley rat at 3 mg/kg, po; type: ADME, organism-based; set-up: dose 3 mg/kg, route oral; details: in vivo
# [21] = system: Mus musculus; assay: Antihyperglycemic activity in db/db mouse assessed as reduction in plasma glucose level at 3 mg/kg, po once daily after 28 days relative to non-fasting control; set-up: scale not given: the % may be the effect or the level left
# [22] = system: Mus musculus; assay: Antihyperglycemic activity in db/db mouse assessed as increase in body weight at 3 mg/kg, po once daily after 28 days
structure (smiles),measurement,setting,value
CCOC(Cc1ccc(OCCN2CC=C(c3ccc(Cl)cc3)CC2)cc1)C(=O)O (stereo not drawn),EC50,[1],2060 nM
same,EC50,[2],7.07 µM
CCOC(Cc1ccc(OCCN2CC=C(c3cccc(Cl)c3)CC2)cc1)C(=O)O (stereo not drawn),EC50,[1],1670 nM
same,EC50,[2],3.24 µM
CCOC(Cc1ccc(OCCN2CC=C(c3cccc(C(F)(F)F)c3)CC2)cc1)C(=O)O (stereo not drawn),EC50,[1],2230 nM
same,EC50,[2],3.12 µM
CCOC(Cc1ccc(OCCN2CC=C(c3ccccc3)CC2)cc1)C(=O)O (stereo not drawn),EC50,[1],2150 nM
same,EC50,[2],5.98 µM
CCCc1ccc(C2=CCN(CCOc3ccc(CC(OCC)C(=O)O)cc3)CC2)cc1 (stereo not drawn),EC50,[1],174 nM
same,EC50,[2],2.08 µM
CCOC(Cc1ccc(OCCN2CC=C(c3ccc(Cl)cc3Cl)CC2)cc1)C(=O)O (stereo not drawn),EC50,[1],706 nM
same,EC50,[2],1.12 µM
CCO[C@@H](Cc1ccc(OCCN2CC=C(c3ccc(Cl)c(Cl)c3)CC2)cc1)C(=O)O,EC50,[1],862 nM
same,EC50,[2],0.615 µM
CCOC(Cc1ccc(OCCN2CC=C(c3ccc(F)cc3)CC2)cc1)C(=O)O (stereo not drawn),EC50,[1],3720 nM
same,EC50,[2],2.23 µM
CCOC(Cc1ccc(OCCN2CC=C(c3ccc(OC)cc3)CC2)cc1)C(=O)O (stereo not drawn),EC50,[1],396 nM
same,EC50,[2],11.3 µM
CCOC(Cc1ccc(OCCN2CC=C(c3cc(Cl)cc(Cl)c3)CC2)cc1)C(=O)O (stereo not drawn),EC50,[1],1420 nM
same,EC50,[2],2.99 µM
CCOC(Cc1ccc(OCCN2CC=C(c3cccc(OC)c3)CC2)cc1)C(=O)O (stereo not drawn),EC50,[1],2380 nM
same,EC50,[2],17.3 µM
CCOC(Cc1ccc(OCCCN2CC=C(c3ccc(C(F)(F)F)cc3)CC2)cc1)C(=O)O (stereo not drawn),EC50,[1],504 nM
same,EC50,[2],9.79 µM
CC(C)(Oc1ccc(OCCN2CC=C(c3ccc(Cl)cc3)CC2)cc1)C(=O)O,EC50,[1],22800 nM
same,EC50,[2],0.868 µM
CC(C)(Oc1cccc(OCCN2CC=C(c3ccc(Cl)cc3)CC2)c1)C(=O)O,EC50,[1],18800 nM
same,EC50,[2],0.331 µM
CCOC(Cc1ccc(OCCN2CC=C(c3ccc(CC)cc3)CC2)cc1)C(=O)O (stereo not drawn),EC50,[1],689 nM
same,EC50,[2],7.58 µM
CCOC(Cc1ccc(OCCN2CC=C(c3cc(Cl)ccc3Cl)CC2)cc1)C(=O)O (stereo not drawn),EC50,[1],1440 nM
same,EC50,[2],1.12 µM
CCOC(Cc1ccc(OCCN2CC=C(c3ccc(Cl)c(Cl)c3)CC2)cc1)C(=O)O (stereo not drawn),EC50,[1],670 nM
same,EC50,[2],1.15 µM
CCOC(Cc1ccc(OCCN2CC=C(c3cccs3)CC2)cc1)C(=O)O (stereo not drawn),EC50,[1],3300 nM
same,EC50,[2],8.58 µM
CCC(Cc1ccc(OCCN2CC=C(c3ccc(Cl)cc3)CC2)cc1)C(=O)O (stereo not drawn),EC50,[1],5290 nM
same,EC50,[2],3.86 µM
CC(Cc1ccc(OCCN2CC=C(c3ccc(Cl)cc3)CC2)cc1)(Oc1ccccc1)C(=O)O (stereo not drawn),EC50,[1],4880 nM
same,EC50,[2],25.5 µM
CCOC(Cc1ccc(OCCN2CC=C(c3ccccc3OC)CC2)cc1)C(=O)O (stereo not drawn),EC50,[1],3930 nM
same,EC50,[2],18.1 µM
CCOC(Cc1ccc(OCCN2CC=C(c3cnccn3)CC2)cc1)C(=O)O (stereo not drawn),EC50,[1],12600 nM
same,EC50,[2],3.67 µM
CCOC(Cc1ccc(OCCCN2CC=C(c3ccc(Cl)cc3)CC2)cc1)C(=O)O (stereo not drawn),EC50,[1],2320 nM
same,EC50,[2],9.8 µM
CCOC(Cc1ccc(OCCN2CC=C(c3ccccn3)CC2)cc1)C(=O)O (stereo not drawn),EC50,[1],2300 nM
same,EC50,[2],10.2 µM
CCO[C@@H](Cc1ccc(OCCN2CC=C(c3ccc(Cl)cc3)CC2)cc1)C(=O)O,Activity,[3],37%
same,Tmax,[4],30 min
same,Activity,[5],63%
same,ED30,[6],0.067 mg/kg
same,AUC(0-t) at 24 h,[7],272 µM·h
same,EC50,[1],639 nM
same,Activity,[8],14%
same,Activity,[9],12.4 g
same,Vd,[10],0.44 L/kg
same,bioavailability,[11],> 100%
same,AUC(0-t) at 24 h,[12],270 µM·h
same,half-life,[13],1380 min
same,Activity,[14],11.2 g
same,clearance,[15],0.23 mL/min/kg
same,EC50,[2],1.73 µM
same,Activity,[16],12.6 g
same,Activity,[17],77%
same,solubility,[18],3260 µg/mL
same,Activity,[19],13.7 g
same,Cmax,[20],15.9 µM
CCOC(Cc1ccc(OCCN2CC=C(c3ccccc3C(F)(F)F)CC2)cc1)C(=O)O (stereo not drawn),EC50,[1],7560 nM
same,EC50,[2],0.542 µM
CCOC(Cc1ccc(OCCN2CC=C(c3ccccc3Cl)CC2)cc1)C(=O)O (stereo not drawn),EC50,[1],5830 nM
same,EC50,[2],7.72 µM
CCOC(Cc1ccc(OCCN2CC=C(c3ccc(C(F)(F)F)cc3)CC2)cc1)C(=O)O (stereo not drawn),EC50,[1],1890 nM
same,EC50,[2],3.4 µM
CCOC(Cc1ccc(OCCN2CC=C(c3cccc(Cl)c3Cl)CC2)cc1)C(=O)O (stereo not drawn),EC50,[1],661 nM
same,EC50,[2],0.064 µM
CCOC(Cc1ccc(OCCN2CC=C(c3ncccn3)CC2)cc1)C(=O)O (stereo not drawn),EC50,[1],4600 nM
same,EC50,[2],7.67 µM
CCOC(Cc1ccc(OCCCN2CC=C(c3ccc(Cl)c(Cl)c3)CC2)cc1)C(=O)O (stereo not drawn),EC50,[1],728 nM
same,EC50,[2],1.7 µM
COc1ccc(OC(=O)N(CC(=O)O)Cc2ccc(OCCc3nc(-c4ccccc4)oc3C)cc2)cc1 [MURAGLITAZAR],Activity,[3],4%
same,Activity,[21],78%
same,Tmax,[4],34.8 min
same,Activity,[5],11%
same,ED30,[6],0.411 mg/kg
same,AUC(0-t) at 24 h,[7],101 µM·h
same,Activity,[9],10.5 g
same,Vd,[10],0.57 L/kg
same,bioavailability,[11],96.2%
same,AUC(0-t) at 24 h,[12],98.8 µM·h
same,half-life,[13],840 min
same,clearance,[15],0.73 mL/min/kg
same,EC50,[2],4.11 µM
same,Activity,[16],12.7 g
same,Activity,[17],54%
same,solubility,[18],41 µg/mL
same,Activity,[22],16.1 g
same,Activity,[19],14.5 g
same,Cmax,[20],25.8 µM
CN(CCOc1ccc(CC2SC(=O)NC2=O)cc1)c1ccccn1 (stereo not drawn) [ROSIGLITAZONE],Activity,[3],17%
same,Activity,[21],68%
same,Tmax,[4],15 min
same,Activity,[5],37%
same,ED30,[6],0.21 mg/kg
same,AUC(0-t) at 24 h,[7],53.7 µM·h
same,Activity,[9],10.5 g
same,bioavailability,[11],> 100%
same,AUC(0-t) at 24 h,[12],94.2 µM·h
same,half-life,[13],63 min
same,clearance,[15],2.99 mL/min/kg
same,Activity,[16],11.1 g
same,Activity,[17],56%
same,solubility,[18],14 µg/mL
same,Activity,[22],13.9 g
same,Activity,[19],12.5 g
same,Cmax,[20],44.3 µM
CCO[C@@H](Cc1ccc(OCCc2ccc(OS(C)(=O)=O)cc2)cc1)C(=O)O [TESAGLITAZAR],EC50,[1],704 nM
same,EC50,[2],3.12 µM
